Measurements from publication PMC10191376, “Characterization of the L-arabinofuranose-specific GafABCD ABC transporter essential for L-arabinose-dependent growth of the lignocellulose-degrading bacterium Shewanella sp. ANA-3” (Microbiology, 2023).

Columns and labels:
GafASw (Shewana3_2073) [1] = experiment: ITC, intrinsic fluorescence ([…]), DSF; type: binding, Shewanella sp. ANA-3
GafASm (Smb_21587) [2] = target: T1, GafASm (Smb_21587) (Sinorhizobium meliloti, UniProt Q926G2); experiment: DSF thermal shift (ΔTm […] °C at […]); type: binding; conditions: read-out: ΔT m (°C) at 1.2 mM [ligand] / GafASm
T1 construct: gene SM_b21587

GafASm (Smb_21587) [3] = target: T1, GafASm (Smb_21587); experiment: DSF thermal shift (ΔTm […] °C at […]); type: binding; conditions: read-out: ΔT m (°C) at 1.2 mM [ligand] / GafASm; remark: listed apart in the source
GafASm (Smb_21587) [4] = target: T1, GafASm (Smb_21587); experiment: DSF thermal shift (ΔTm […] °C at […]), weak; type: binding; conditions: read-out: ΔT m (°C) at 1.2 mM [ligand] / GafASm
GafASw (Shewana3_2073) [5] = experiment: crystal structure ([…] Å), ITC, intrinsic fluorescence, DSF; type: binding, Shewanella sp. ANA-3
GafASm (Smb_21587) [6] = target: T1, GafASm (Smb_21587); experiment: DSF thermal shift (ΔTm […] °C at […]); type: binding; conditions: read-out: ΔT m (°C) at 1.2 mM [ligand] / GafASm; remark: listed apart in the source

T1 sequence (Q926G2 entry or part of it): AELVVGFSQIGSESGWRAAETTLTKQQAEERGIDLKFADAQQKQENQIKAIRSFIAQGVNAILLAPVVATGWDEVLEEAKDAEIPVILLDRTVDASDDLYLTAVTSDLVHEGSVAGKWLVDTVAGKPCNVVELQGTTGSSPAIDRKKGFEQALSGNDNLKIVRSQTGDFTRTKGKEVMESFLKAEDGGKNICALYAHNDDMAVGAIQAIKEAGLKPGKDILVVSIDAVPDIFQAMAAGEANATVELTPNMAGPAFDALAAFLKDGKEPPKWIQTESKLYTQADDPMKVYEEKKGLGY

OC[C@H]1OC(O)[C@H](O)[C@H](O)[C@@H]1O (stereo partly drawn) [D-allose]
Kd (GafASw (Shewana3_2073) [1]): 27.4 ± 4.32 µM

C[C@H]1OC(O)[C@H](O)[C@@H](O)[C@H]1O (stereo partly drawn) [D-fucose]
ΔTm at 1200 µM (GafASm (Smb_21587) [2]): 11.8 ± 0.2 °C

OC[C@H]1OC(O)[C@H](O)[C@@H](O)[C@H]1O (stereo partly drawn) [D-galactose]
ΔTm at 1200 µM (GafASm (Smb_21587) [3]): 11.6 ± 0.2 °C

OC[C@H]1OC(O)[C@@H](O)[C@@H](O)[C@H]1O (stereo partly drawn) [D-talose]
ΔTm at 1200 µM (GafASm (Smb_21587) [4]): 3.4 ± 0.2 °C

OC[C@@H]1OC(O)[C@H](O)[C@H]1O (stereo partly drawn) [L-arabinofuranose]
Kd (GafASw (Shewana3_2073) [5]): 5.8 ± 0.51 µM

OC1OC[C@H](O)[C@H](O)[C@H]1O (stereo partly drawn) [L-arabinose]
ΔTm at 1200 µM (GafASm (Smb_21587) [6]): 14.4 ± 0.2 °C
